Experimental data taken from US8987250B2 (Gilead Sciences, Inc., priority 2012, dated 2015).
Where two headings read alike, the source gives them in different places.

What was measured:
[1] = test system: HIV-IIIb; assay: Test A: Antiviral Assay in MT4 Cells; type: cell-based; settings: MT-4 cells infected with HIV-IIIb, 5 days of incubation, CellTiter-Glo, read-out: EC50
Outline: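 Read-out: CellTiter-Glo chemiluminescence after 5-day incubation at 37 °C. Compounds tested as 3-fold serial dilutions (10 concentrations, quadruplicate) in RPMI 1640 with 10% FBS, on MT-4 cells pre-infected at 37 °C with HIV-IIIb at 0.004 m.o.i.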

[2] = test system: human liver microsomes; assay: Test B: Metabolic Stability Assay with Human Liver Microsomes; type: in vitro ADME; settings: 1 uM compound, 1 mg/mL human liver microsomal proteins, 37° C., 0-60 minutes; half-life class
Source text: Test B: Metabolic Stability Assay with Human Liver Microsomes
Effective viral suppression in the HIV infected patient requires that the antiviral drug persists in the patient's body at concentrations exceeding the minimum concentration required to inhibit viral proliferation. One of the factors controlling the drug levels after dosing is metabolic conversion. The liver is one site of drug metabolism. Approximately 60% of marketed drugs are cleared by hepatic metabolism (McGinnity D F et al. (2004) Drug Metab Dispos 32; 1247-1253). Liver microsomes are subcellular fractions which contain membrane bound drug metabolising enzymes. Human liver microsomes provide a convenient and concentrated source of the key liver metabolic enzymes (e.g., cytochromes P450, UDP-glucuronosyltransferases, and many others) and can be used to predict the metabolic stability of drug candidates (e.g., agents).
Cluster tubes containing 500 uL of 1 uM compound with 1 mg/mL human liver microsomal proteins (BD Biosciences, BD452117)/50 mM K-phosphate buffer pH7.4/NADPH regenerating system/and UDP-glucuronosyltransferase cofactors, were incubated on the Precision-2000 workstation at 37° C. for 0, 10, 25, 60 minutes. The reactions were quenched with 100 uL of 0.2% formic acid in 90% ACN; containing 50 nM of an internal standard. The samples were analyzed on LC/MS/MS instrument (Q-Trap). Metabolic stabilities in microsomal fractions and hepatocytes were determined by measuring the rate of disappearance of the compound. Data (% of parent remaining) were plotted on a semi logarithmic scale and fitted using an exponential fit.

[3] = Human immunodeficiency virus 1, IIIB, MT4, 120 h, Table 1
[4] = Human immunodeficiency virus 1, IIIB, MT4, 120 h, Table 2

Row | Structure (SMILES) | EC50 [1, 3] [nM] | Human Microsomal stability [2] | EC50 [1, 4] [nM] | EC50 ([1]; Table 1) [nM]
1 | Cc1cc2nc(-c3ccnc(-c4ccc5c(cnn5C)c4)c3)sc2c(-c2ccc(Cl)cc2)c1[C@H](OC(C)(C)C)C(=O)O [Compound 113a, (S)-2-tert-butoxy-2-(7-(4-chlorophenyl)-5-methyl-2-(2-(1-methyl-1H-indazol-5-yl)pyridin-4-yl)benzo[d]thiazol-6-yl)acetic acid] | 16 | A (a human microsomal stability half-life of greater than or equal to 300 minutes) |  | 
2 | Cc1cc2nc(-c3cccc(-c4cnn(C(C)(C)C)c4)c3)sc2c(-c2ccc(Cl)cc2)c1[C@H](OC(C)(C)C)C(=O)O [Compound 141] | 77 | B (a human microsomal stability half-life of less than 300 minutes but greater than or equal to 150 minutes) |  | 
3 | COc1cc(-c2cccc(-c3nc4cc(C)c([C@H](OC(C)(C)C)C(=O)O)c(-c5ccc(Cl)cc5)c4s3)c2)ccn1 [Compound 152] | 46 | C (a human microsomal stability half-life of less than 150 minutes) |  | 
4 | Cc1cc2nc(-c3cccc(-c4cnn(C)c4)c3)sc2c(-c2ccc(Cl)cc2)c1[C@H](OC(C)(C)C)C(=O)O [Compound 158] | 17 | C (a human microsomal stability half-life of less than 150 minutes) |  | 
5 | Cc1cc2nc(-c3ccnc(-n4ccc5cnccc5c4=O)c3)sc2c(-c2ccc(Cl)cc2)c1[C@H](OC(C)(C)C)C(=O)O [Compound 186, (S)-2-tert-butoxy-2-(7-(4-chlorophenyl)-5-methyl-2-(2-(1-oxo-2,6-naphthyridin-2(1H)-yl)pyridin-4-yl)benzo[d]thiazol-6-yl)acetic acid] |  | C (a human microsomal stability half-life of less than 150 minutes) | 4 | 
6 | Cc1cc2nc(-c3ccnc(N4CCN(C(C)C)CC4)n3)sc2c(-c2ccc(Cl)cc2)c1[C@H](OC(C)(C)C)C(=O)O [Compound 202, (S)-2-tert-butoxy-2-(7-(4-chlorophenyl)-2-(2-(4-isopropylpiperazin-1-yl)pyrimidin-4-yl)-5-methylbenzo[d]thiazol-6-yl)acetic acid] |  | A (a human microsomal stability half-life of greater than or equal to 300 minutes) | 2 | 
7 | Cc1cc2nc(-c3ccc4c(N(C)C)nn(C)c4c3)sc2c(-c2ccc(Cl)cc2)c1[C@H](OC(C)(C)C)C(=O)O [Compound 206, (S)-2-tert-butoxy-2-(7-(4-chlorophenyl)-2-(3-(dimethylamino)-1-methyl-1H-indazol-6-yl)-5-methylbenzo[d]thiazol-6-yl)acetic acid] |  | C (a human microsomal stability half-life of less than 150 minutes) | 24 | 
8 | Cc1cc2nc(-c3ccc4c(c3)c(-c3cccnc3)nn4C)sc2c(-c2ccc(Cl)cc2)c1[C@H](OC(C)(C)C)C(=O)O [Compound 212, (S)-2-tert-butoxy-2-(7-(4-chlorophenyl)-5-methyl-2-(1-methyl-3-(pyridin-3-yl)-1H-indazol-5-yl)benzo[d]thiazol-6-yl)acetic acid] |  | A (a human microsomal stability half-life of greater than or equal to 300 minutes) | 6 | 726
9 | Cc1cc2nc(-c3ccc4c(c3)c(N3CCN(C)CC3)nn4C)sc2c(-c2ccc(Cl)cc2)c1[C@H](OC(C)(C)C)C(=O)O [Compound 257, (S)-2-tert-butoxy-2-(7-(4-chlorophenyl)-5-methyl-2-(1-methyl-3-(4-methylpiperazin-1-yl)-1H-indazol-5-yl)benzo[d]thiazol-6-yl)acetic acid] |  | A (a human microsomal stability half-life of greater than or equal to 300 minutes) | 5 | 
10 | Cc1cc2nc(N3CCN(C)C(c4ccc5c(cnn5C)c4)C3)sc2c(-c2ccc(Cl)cc2)c1[C@H](OC(C)(C)C)C(=O)O (stereo partly drawn) [Compound 278, (2S)-2-tert-butoxy-2-(7-(4-chlorophenyl)-5-methyl-2-(4-methyl-3-(1-methyl-1H-indazol-5-yl)piperazin-1-yl)benzo[d]thiazol-6-yl)acetic acid] |  | B (a human microsomal stability half-life of less than 300 minutes but greater than or equal to 150 minutes) | 4 | 
11 | Cc1cc2nc(-c3ccnc(N4CC(N(C)C)C4)n3)sc2c(-c2ccc(Cl)cc2)c1[C@H](OC(C)(C)C)C(=O)O [Compound 333, (S)-2-tert-butoxy-2-(7-(4-chlorophenyl)-2-(2-(3-(dimethylamino)azetidin-1-yl)pyrimidin-4-yl)-5-methylbenzo[d]thiazol-6-yl)acetic acid] |  | A (a human microsomal stability half-life of greater than or equal to 300 minutes) | 3 | 
12 | Cc1cc2nc(-c3ccnc(N4CCN(C5COC5)CC4)n3)sc2c(-c2ccc(Cl)cc2)c1[C@H](OC(C)(C)C)C(=O)O [Compound 336, (S)-2-tert-butoxy-2-(7-(4-chlorophenyl)-5-methyl-2-(2-(4-(oxetan-3-yl)piperazin-1-yl)pyrimidin-4-yl)benzo[d]thiazol-6-yl)acetic acid] |  | A (a human microsomal stability half-life of greater than or equal to 300 minutes) | 2 | 
